The record followed here is patent US7399744B2, “Methods for affecting body composition” (Amylin Pharmaceuticals, Inc., priority 2004, dated 2008).

Molecules are shown by their SMILES. Marks after values point to notes of the source that are not given here.

The assay in a line: Amylin or sibutramine by 28-day osmotic pump in high fat-fed rats (Example 1). The class given is in vivo, rat. The note with it: amylin 300 μg/kg/day or sibutramine 3 mg/kg/day, s.c. 28-day osmotic pump, high fat-fed rats, vs high fat-fed controls. The method, then:
Low fat-fed rats (11% kcal from fat, D12329, Research Diets) were also implanted with pumps delivering vehicle. Food intake and body weight measurements were obtained weekly.
Rats were sacrificed by cardiac puncture under anesthesia. Triglyceride levels were measured on a COBAS Mira plasma analyzer (Roche), and leptin and insulin were assayed according to Linco Research rat RIA kits. Body composition was measured by chemical analysis (Covance Laboratories, Madison, Wis.).
All data are represented as mean±SEM. Analysis of variance was used to test for group differences.
The rats were fattened for 10 weeks prior to drug treatment. The high fat-fed rats were designated as obesity-prone (top 50% of weight gainers) or obesity-resistant (bottom 50%) based on the amount of weight gained through week 7.
In this study, an obesity-prone/obesity-resistant difference in drug interaction was found for protein weight in amylin-treated rats, and thus body composition parameters were measured separately in obesity-prone and obesity-resistant animals in each drug group (FIGS. 2A and 2B).

For the molecule `CC(C)CC(N(C)C)C1(c2ccc(Cl)cc2)CCC1` (centres unmarked) [SIBUTRAMINE, sibutramine, reference compound], the “Body Weight” value by setting is: (Week 1) 6%*; (Week 2) 6%*; (Week 3) 6%*; (Week 4) 3%. The “Caloric Intake” value is 45%* (Week 1), 8%* (Week 2), −1% (Week 3) and −3% (Week 4).
